Substitutions are numbered along the chain they refer to. Names and notes keep the numbering of the source.
B1: CRP A32N: CRP glycosylated by mutating its 32nd amino acid from alanine to asparagine (protein, UniProt P02741 19-224, looked up, variant A32N)
C-reactive protein: QTDMSRKAFVFPKESDTSYVSLKAPLTKPLKNFTVCLHFYTELSSTRGYSIFSYATKRQDNEILIFWSKDIGYSFTVGGSEILFEVPEVTVAPVHICTSWESASGIVEFWVDGKPRVRKSLKKGYTVGAEASIILGQEQDSFGGNFEGSQSLVGDIGNVNMWDFVLSPDEINTIYLGGPFSPNVLNWRALKYEVQGEVFTKPQLWP
B2: CRP: C-reactive protein, 51% sequence identity with SAP (protein, UniProt P02741 19-224, looked up)
C-reactive protein: B1 C-reactive protein with N32A

Experiments:
C57/BL6 mice = assay: bleomycin-induced pulmonary fibrosis in mice; assay type: in vivo
Method: To determine the effects of compound 1 in treatment of a fibrosing disease, pulmonary fibrosis was selected as a model. Pulmonary fibrosis was induced in C57/BL6 mice by oropharyngeal aspiration of bleomycin into their lungs. 24 hour after bleomycin administration, mice received daily intraperitoneal injections of compound 1. At day 21 mice were euthanized and the bronchoalveolar lavage fluid (BAL) and the lungs were harvested.
The successful aspiration of bleomycin into the lungs was confirmed by listening for the crackling noise heard after the aspiration. Starting 24 hours following bleomycin aspiration (day 1), mice were treated daily with intraperitoneal injections of 50 microliters of PBS containing 2 microliters of 1 mg/ml of compound 1 (ChemBridge Corporation, San Diego, Calif.) (0.1 mg/kg) dissolved in DMSO (SigmaAldrich), 2 microliters of 0.1 mg/ml of compound 1 (0.01 mg/kg) dissolved in DMSO, 2 microliters of 0.01 mg/ml of compound 1 (0.001 mg/kg) dissolved in DMSO, or an equal volume of PBS containing 2 microliters of DMSO. All animals were used in accordance with rules published by the National Institutes of Health and with a protocol approved by the Texas A&M University Institutional Animal Care and Use Committee. Mice were weighed daily, and euthanized using CO2 following NIH guidelines at day 21 after bleomycin aspiration. No injections were done on day 21. […] The BAL cells from the first BAL collection were collected by centrifugation at 500×g for 10 minutes, and the supernatants were transferred to Eppendorf tubes. The supernatants were flash frozen with liquid nitrogen, and stored at −20° C. until further use. The BAL pellets were resuspended in the secondary and tertiary BAL fluid and the combined cells were collected by centrifugation at 500×g for 5 minutes. The cells were resuspended in 500 microliters of 4% (w/v) BSA-PBS and counted with a hemocytometer. 100 microliters of diluted cells were then aliquoted into cytospin funnels and were then spun onto glass slides (Superfrost plus white slides, VWR) at 400×g for 5 minutes using a cytospin centrifuge (Shandon, Cheshire, England). These cells were then air-dried, and stained for CD11b (Biolegend) or CD11c (MBL International, Woburn, Mass.) as described below.
After collection of BAL fluid, mouse lungs were inflated with prewarmed OCT (VWR, Radnor, Pa.) and then embedded in OCT, frozen on dry ice, and then stored at −80° C. 6-micron cryosections of mouse lung were mounted on Superfrost Plus microscope slides (VWR). Sections were fixed in acetone for 20 min at room temperature. […] After washing, the biotinylated antibodies were detected by streptavidin-alkaline phosphatase (Vector Laboratories) following the manufacturer's protocol. […]

[1] = test system: fibrocyte formation from human PBMCs; assay: fibrocyte formation (differentiation) assay with PBMCs in serum-free medium; assay type: cell-based; details: for IC50: PBMC, read-out: IC50 of inhibition of fibrocyte formation; for effect on fibrocyte formation / differentiation (in words): counts normalized to control; for concentration at which fibrocyte formation was significantly inhibited: p<0.05 (t-test)
Text: (§1) Human blood was collected into heparin tubes (BD Bioscience, San Jose, Calif.) from adult volunteers who gave written consent and with specific approval from the Texas A&M University human subjects Institutional Review Board. PBMCs were then isolated as previously described in Pilling, D. et al., Improved serum-free culture conditions for differentiation of human and murine fibrocytes, Journal of Immunology Methods 351:62-70 (2009), incorporated in material part by reference herein. Alamar Blue (Life Technologies, Grand Island, N.Y.) was used to assess cell viability following the manufacturer's protocol. Fibrocyte differentiation assays in the presence of different compounds were performed in serum-free medium as described in Pilling, D. et al., Improved serum-free culture conditions for differentiation of human and murine fibrocytes, Journal of Immunology Methods 351:62-70 (2009) which is incorporated in material part by reference herein. Macrophage polarization assays to detect formation of proinflammatory macrophages with an M1 phenotype were carried out in serum-free medium, in which case monocytes were left to differentiate to macrophages for 5 days and then the medium was replaced with fresh medium containing 3 microgram/ml of the tested protein.

macrophages = assay: macrophage polarization assay (M1 marker ICAM-1, M2 marker CD163); assay type: cell-based, human; details: 3 microgram/ml protein
Text: as §1
Macrophage staining with anti-CD163 and anti-ICAM-1 antibodies was carried out as described in Pilling, D. et al., Identification of markers that distinguish monocyte-derived fibrocytes from monocytes, macrophages, and fibroblasts, PloS one 10:e7475 (2009) which is incorporated in material part by reference herein. Both primary antibodies were used at a concentration of 5 microgram/ml.

[2] = 0.1, 0.01 and 0.001 mg/kg daily intraperitoneal, day 21

| Molecule | IC50 [1] | effect on fibrocyte formation / differentiation (in words) [1] | expression of the M1 marker ICAM-1 (macrophages) | expression of the M2 marker CD163 (macrophages) | other results |
| --- | --- | --- | --- | --- | --- |
| CCC(=O)Nc1nc(C)c(-c2csc(Nc3ccc(N(C)C)cc3)n2)s1 [Compound 1] | 0.0031 nM | – | – | – | CD11b positive inflammatory macrophages in the BAL vs bleomycin control (C57/BL6 mice; [2]): significantly decreased; collagen in the lungs (picrosirius red) vs bleomycin alone (C57/BL6 mice; [2]): significantly less collagen in the lungs; number of CD11b positive inflammatory macrophages in the lung sections (C57/BL6 mice; 0.1 and 0.01 mg/kg daily intraperitoneal, day 21, after BAL): significantly decreased; CD11c positive macrophages in the BAL (C57/BL6 mice; daily intraperitoneal injections, day 21): not altered significantly |
| CCCOC(=O)c1ccc(-c2ccc(C=C3C(=O)N(c4ccc(S(N)(=O)=O)cc4)N=C3C(F)(F)F)o2)cc1 [Compound 2] | 0.33 nM | – | – | – | – |
| COC(=O)c1ccc(-c2ccc(C=C3C(=O)N(c4ccc(S(N)(=O)=O)cc4)N=C3C(F)(F)F)o2)cc1 [Compound 3] | 2.2 nM | significantly inhibited fibrocyte formation at all tested concentrations | – | – | – |
| SAP NA: enzymatically (neuraminidase) desialylated SAP lacking the terminal sialic acids | – | reduced inhibitory effect on fibrocyte differentiation | increased the expression of the M1 marker ICAM-1 | did not | – |
| SAP: Serum amyloid P, 125 kDa pentameric pentraxin protein | – | – | did not cause such an increase | increased the expression of the M2 marker CD 163 | concentration at which fibrocyte formation was significantly inhibited [1]: ≥ 0.25 microgram/ml |
| B1 | – | able to inhibit fibrocyte formation, although not as well as SAP | did not cause such an increase | increased the expression of the M2 marker CD 163 | concentration at which fibrocyte formation was significantly inhibited [1]: ≥ 1 microgram/ml |
| B2 | – | – | increased the expression of the M1 marker ICAM-1 | did not | – |

Source: patent US20160272713A1, “Fibrosis Inhibiting Compounds and Methods of Use Thereof in the Prevention or Treatment of Fibrosing Diseases” (priority 2013, published 2016)
